In ChEMBL document CHEMBL1201862, “PubChem BioAssay data set” (2004):
The source made the active and inactive calls.

Legend:
[1] = target: Heat shock protein HSP 90-alpha (Homo sapiens, UniProt P07900); type: functional, organism-based
[2] = target: T1, Alkaline phosphatase, tissue-nonspecific isozyme (Homo sapiens, UniProt P05186); assay: potency against alkaline phosphatase TNAP – biochemical, luminescent, dose response, SAR follow-up (AID 1056)
T1 sequence (P05186 whole entry): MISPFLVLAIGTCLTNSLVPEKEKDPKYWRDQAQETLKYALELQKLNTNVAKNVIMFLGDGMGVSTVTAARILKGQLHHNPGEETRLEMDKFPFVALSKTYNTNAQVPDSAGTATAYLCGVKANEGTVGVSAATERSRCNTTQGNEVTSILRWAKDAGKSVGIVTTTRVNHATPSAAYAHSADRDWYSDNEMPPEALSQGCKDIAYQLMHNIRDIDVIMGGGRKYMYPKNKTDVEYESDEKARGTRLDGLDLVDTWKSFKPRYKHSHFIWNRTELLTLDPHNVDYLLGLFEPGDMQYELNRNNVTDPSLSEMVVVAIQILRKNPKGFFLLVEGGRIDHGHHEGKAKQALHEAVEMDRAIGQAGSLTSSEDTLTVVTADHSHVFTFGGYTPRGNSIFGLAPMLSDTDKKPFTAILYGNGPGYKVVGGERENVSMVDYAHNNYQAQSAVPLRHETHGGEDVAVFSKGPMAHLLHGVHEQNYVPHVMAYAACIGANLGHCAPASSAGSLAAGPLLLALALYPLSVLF

[3] = target: Glyceraldehyde-3-phosphate dehydrogenase (Homo sapiens, UniProt P04406)
Chain of Glyceraldehyde-3-phosphate dehydrogenase (P04406 whole entry): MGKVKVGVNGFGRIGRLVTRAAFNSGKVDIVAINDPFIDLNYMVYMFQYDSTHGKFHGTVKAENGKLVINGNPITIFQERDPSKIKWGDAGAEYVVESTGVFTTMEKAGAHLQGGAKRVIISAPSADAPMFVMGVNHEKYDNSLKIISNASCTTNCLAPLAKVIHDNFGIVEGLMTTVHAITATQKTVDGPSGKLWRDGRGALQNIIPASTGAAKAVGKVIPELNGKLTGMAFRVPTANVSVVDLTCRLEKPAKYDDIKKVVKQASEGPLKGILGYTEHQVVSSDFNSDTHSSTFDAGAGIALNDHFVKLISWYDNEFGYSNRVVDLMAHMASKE

[4] = Trypanosoma cruzi growth suppression in host cells – NIH3T3 host cells, beta-gal luminescence, confirmation (AID 2044); type: functional, cell-based;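 also: intracellular parasites grown in NIH/3T3 mouse fibroblasts as host cells; luminescent beta-galactosidase reporter signal from transgenic T. cruzi replicating inside host cells; inhibitors lower the luminescence signal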
[5] = target: G-protein coupled receptor 55 (Homo sapiens, UniProt Q9Y2T6); assay: inhibition of LPI-stimulated GPR55 beta-arrestin translocation – imaging, U2OS, beta-arrestin-GFP, LPI agonist, primary screen (AID 2013); type: functional;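 also: antagonist potency measured as reduced agonist-driven arrestin aggregation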
Chain of G-protein coupled receptor 55 (Q9Y2T6 whole entry): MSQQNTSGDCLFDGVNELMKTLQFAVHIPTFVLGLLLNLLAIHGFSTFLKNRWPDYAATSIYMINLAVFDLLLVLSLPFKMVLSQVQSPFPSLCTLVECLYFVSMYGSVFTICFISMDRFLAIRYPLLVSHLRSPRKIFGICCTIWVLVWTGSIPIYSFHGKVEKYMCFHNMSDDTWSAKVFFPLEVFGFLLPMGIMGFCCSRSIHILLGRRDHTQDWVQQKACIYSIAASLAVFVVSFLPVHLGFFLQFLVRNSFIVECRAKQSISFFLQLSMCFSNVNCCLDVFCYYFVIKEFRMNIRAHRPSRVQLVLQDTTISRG

[6] = NIH3T3 cell viability loss – ATP luminescence, mouse fibroblasts, counter-screen, dose response (AID 2010); type: functional, cell-based;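 also: cells exposed to compound for about 90 hours before reading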
[7] = target: T2, Delta-type opioid receptor (Homo sapiens, UniProt P41143); assay: HTS Image-Based Screen for Agonists of the DOR Receptor. [Related pubchem assays (depositor defined):AID1777, AID1786, AID2133]; type: functional
T2 sequence (P41143 whole entry): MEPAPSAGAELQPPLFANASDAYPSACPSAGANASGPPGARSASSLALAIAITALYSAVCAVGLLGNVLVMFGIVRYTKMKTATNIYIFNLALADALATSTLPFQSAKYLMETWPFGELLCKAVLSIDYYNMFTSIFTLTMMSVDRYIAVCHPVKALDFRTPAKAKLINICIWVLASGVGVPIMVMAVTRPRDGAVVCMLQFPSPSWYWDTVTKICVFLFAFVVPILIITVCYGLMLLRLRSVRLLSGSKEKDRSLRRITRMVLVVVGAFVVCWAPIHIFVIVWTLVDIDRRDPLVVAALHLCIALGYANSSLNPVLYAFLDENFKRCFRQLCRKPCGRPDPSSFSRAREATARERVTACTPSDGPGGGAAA

[8] = target: T3, Kappa-type opioid receptor (Homo sapiens, UniProt P41145); type: functional
T3 sequence (P41145 whole entry): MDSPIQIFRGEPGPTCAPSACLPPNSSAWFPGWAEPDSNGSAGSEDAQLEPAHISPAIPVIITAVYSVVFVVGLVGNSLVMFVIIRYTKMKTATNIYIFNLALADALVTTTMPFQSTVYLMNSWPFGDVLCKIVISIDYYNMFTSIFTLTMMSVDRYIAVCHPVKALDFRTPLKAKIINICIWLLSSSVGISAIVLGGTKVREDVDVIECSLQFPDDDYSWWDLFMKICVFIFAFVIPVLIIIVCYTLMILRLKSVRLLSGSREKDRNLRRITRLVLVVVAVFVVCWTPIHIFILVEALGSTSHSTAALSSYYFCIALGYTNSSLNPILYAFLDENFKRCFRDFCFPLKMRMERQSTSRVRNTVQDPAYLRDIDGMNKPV

[9] = target: Beta-galactosidase (Escherichia coli, UniProt Q8VNN2); type: functional
Chain of Beta-galactosidase (Q8VNN2 whole entry): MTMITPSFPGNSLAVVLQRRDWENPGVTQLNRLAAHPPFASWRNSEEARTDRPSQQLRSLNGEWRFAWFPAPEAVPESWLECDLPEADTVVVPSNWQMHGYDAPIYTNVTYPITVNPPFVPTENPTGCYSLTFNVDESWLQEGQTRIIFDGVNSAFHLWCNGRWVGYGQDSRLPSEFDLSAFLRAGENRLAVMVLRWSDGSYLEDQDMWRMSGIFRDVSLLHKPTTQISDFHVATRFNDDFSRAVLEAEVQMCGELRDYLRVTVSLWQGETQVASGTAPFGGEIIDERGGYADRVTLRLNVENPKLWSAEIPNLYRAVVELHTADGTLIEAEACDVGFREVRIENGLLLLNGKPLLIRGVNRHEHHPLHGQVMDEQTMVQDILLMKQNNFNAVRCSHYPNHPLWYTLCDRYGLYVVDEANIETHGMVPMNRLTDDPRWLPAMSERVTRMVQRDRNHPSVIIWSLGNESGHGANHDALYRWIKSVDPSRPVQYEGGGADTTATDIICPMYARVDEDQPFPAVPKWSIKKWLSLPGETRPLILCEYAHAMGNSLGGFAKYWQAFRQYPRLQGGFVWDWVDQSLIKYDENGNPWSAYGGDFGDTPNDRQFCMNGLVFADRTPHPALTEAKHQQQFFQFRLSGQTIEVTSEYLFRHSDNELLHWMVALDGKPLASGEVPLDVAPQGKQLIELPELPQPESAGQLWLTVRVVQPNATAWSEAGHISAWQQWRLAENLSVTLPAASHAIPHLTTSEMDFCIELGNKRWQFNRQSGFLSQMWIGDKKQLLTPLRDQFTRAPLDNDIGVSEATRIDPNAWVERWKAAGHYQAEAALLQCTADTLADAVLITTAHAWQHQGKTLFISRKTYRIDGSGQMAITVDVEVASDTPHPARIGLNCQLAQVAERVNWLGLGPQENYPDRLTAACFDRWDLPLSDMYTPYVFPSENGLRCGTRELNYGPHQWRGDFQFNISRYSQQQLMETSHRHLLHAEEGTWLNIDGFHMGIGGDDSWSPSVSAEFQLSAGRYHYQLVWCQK

[10] = target: T2, Delta-type opioid receptor; assay: HTS Image-Based Screen for Antagonists of the DOR Receptor. [Related pubchem assays (depositor defined):AID1777, AID1785, AID1786, AID2133]; type: functional
[11] = target: Mu-type opioid receptor (Homo sapiens, UniProt P35372); assay: HTS Image-Based Screen for Agonists of the MOR Receptor. [Related pubchem assays (depositor defined):AID1777, AID1785, AID1786, AID2133]; type: functional;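 also: imaging of beta-arrestin GFP recruitment into spots after receptor activation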
Chain of Mu-type opioid receptor (P35372 whole entry): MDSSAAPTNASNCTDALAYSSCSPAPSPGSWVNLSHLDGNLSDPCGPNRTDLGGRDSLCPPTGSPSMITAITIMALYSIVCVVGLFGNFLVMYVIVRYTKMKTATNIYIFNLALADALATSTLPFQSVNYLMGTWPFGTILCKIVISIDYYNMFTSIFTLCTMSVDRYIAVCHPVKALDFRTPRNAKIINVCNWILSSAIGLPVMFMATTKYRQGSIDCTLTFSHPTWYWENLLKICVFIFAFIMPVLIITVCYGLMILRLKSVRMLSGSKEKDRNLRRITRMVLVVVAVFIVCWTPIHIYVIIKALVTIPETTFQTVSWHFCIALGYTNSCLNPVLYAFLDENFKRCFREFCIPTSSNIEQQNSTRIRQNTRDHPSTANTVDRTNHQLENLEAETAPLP

[12] = target: T3, Kappa-type opioid receptor; type: functional; remark: listed apart in the source
[13] = reduction of Shn3 3'UTR-driven luciferase in osteoblasts – cell-based, Clone20 osteoblasts, firefly luciferase, cherry-picked, dose response (AID 624132); type: functional;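 also: firefly luciferase luminescence from reporter carrying the Shn3 3'UTR in osteoblasts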
[14] = target: T4, RNA-binding protein pos-1 (Caenorhabditis elegans, UniProt G5EF15); assay: disruptors of C. elegans POS-1 RNA interaction – biochemical, fluorescence polarization, dose response (AID 1964);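 also: purified POS-1 fused to maltose binding protein made in E. coli; potency of compounds blocking POS-1 binding to fluorescent RNA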
T4 sequence (G5EF15 whole entry): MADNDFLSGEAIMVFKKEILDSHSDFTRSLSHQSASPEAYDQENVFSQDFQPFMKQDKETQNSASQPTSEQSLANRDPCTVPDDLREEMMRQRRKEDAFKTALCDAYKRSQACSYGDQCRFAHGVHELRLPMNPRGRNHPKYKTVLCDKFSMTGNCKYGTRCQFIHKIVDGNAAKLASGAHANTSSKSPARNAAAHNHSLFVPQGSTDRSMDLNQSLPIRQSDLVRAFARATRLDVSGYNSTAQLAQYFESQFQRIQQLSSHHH

[15] = Luminescence Cell-Based Dose Confirmation HTS to Identify Inhibitors of Platelet Dense Granule Release. [Related pubchem assays: 1663 (Primary HTS), 1678 (Summary of Project)]; type: functional
[16] = target: Luciferin 4-monooxygenase (Photinus pyralis, UniProt P08659); assay: inhibition of purified Photinus pyralis luciferase – biochemical, luminescence, dose response (AID 1891)
[17] = A Cell Based Secondary Assay To Explore Cytotoxicity of Compounds that Sensitize Mycobacterium Tuberculosis to Beta-Lactam Antibiotics.; type: functional
[18] = target: T5, Zinc finger protein mex-5 (Caenorhabditis elegans, UniProt Q9XUB2); assay: potency of MEX-5 RNA-binding blockers – biochemical, C. elegans, fluorescence polarization, dose response (AID 1960)
T5 sequence (Q9XUB2 whole entry): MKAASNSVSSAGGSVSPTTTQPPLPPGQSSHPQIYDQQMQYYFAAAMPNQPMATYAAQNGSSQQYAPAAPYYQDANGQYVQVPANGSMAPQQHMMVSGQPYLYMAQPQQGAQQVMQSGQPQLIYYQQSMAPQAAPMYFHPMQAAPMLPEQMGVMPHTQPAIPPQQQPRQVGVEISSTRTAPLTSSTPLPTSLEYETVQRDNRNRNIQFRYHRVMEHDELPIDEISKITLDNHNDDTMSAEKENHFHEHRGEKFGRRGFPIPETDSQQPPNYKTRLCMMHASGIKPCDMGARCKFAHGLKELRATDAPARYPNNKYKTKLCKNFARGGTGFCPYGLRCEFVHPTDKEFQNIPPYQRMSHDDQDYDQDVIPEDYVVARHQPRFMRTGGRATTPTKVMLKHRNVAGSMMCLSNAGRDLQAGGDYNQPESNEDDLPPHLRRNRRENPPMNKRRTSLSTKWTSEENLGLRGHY

[19] = loss of viability in HepG2 cells – cell-based, CellTiter-Glo, cherry-picked, cytotoxicity control for Shn3 inhibitor project, dose response (AID 624134); type: functional
[20] = target: T6, Short transient receptor potential channel 4 (Mus musculus, UniProt Q9QUQ5); assay: block of DAMGO-driven TRPC4 calcium entry – cell-based, HEK293 TRPC4/mu-opioid, Fluo-4 calcium, dose response (AID 434942); type: functional;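 also: potency of inhibitors blocking the TRPC4 calcium response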
T6 sequence (Q9QUQ5 whole entry): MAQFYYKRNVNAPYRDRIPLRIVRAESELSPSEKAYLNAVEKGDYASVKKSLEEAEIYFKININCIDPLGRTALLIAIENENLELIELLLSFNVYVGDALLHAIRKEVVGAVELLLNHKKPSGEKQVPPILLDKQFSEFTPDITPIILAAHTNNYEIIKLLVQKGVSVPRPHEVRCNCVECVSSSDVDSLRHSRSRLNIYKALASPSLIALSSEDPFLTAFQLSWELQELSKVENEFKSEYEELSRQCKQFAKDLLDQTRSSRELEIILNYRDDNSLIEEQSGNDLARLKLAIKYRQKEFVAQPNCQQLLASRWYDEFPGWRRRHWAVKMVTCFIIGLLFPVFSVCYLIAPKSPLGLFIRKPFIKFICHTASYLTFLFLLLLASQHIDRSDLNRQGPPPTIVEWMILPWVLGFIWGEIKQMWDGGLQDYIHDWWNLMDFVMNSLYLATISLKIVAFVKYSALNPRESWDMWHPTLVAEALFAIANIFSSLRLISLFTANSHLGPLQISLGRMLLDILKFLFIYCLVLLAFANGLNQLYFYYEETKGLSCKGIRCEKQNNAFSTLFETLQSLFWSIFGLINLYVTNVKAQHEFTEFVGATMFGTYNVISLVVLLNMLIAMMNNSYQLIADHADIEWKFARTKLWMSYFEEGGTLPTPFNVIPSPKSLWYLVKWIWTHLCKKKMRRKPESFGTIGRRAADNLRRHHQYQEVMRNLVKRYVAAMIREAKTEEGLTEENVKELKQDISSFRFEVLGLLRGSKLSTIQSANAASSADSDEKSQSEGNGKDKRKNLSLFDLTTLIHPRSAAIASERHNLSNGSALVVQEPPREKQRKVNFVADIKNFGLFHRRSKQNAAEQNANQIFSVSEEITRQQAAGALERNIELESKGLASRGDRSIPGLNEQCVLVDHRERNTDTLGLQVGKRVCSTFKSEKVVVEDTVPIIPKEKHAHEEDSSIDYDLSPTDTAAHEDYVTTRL

[21] = target: T6, Short transient receptor potential channel 4; assay: calcium entry via TRPC4 opening agents – cell-based, HEK293 TRPC4/mu-opioid, Fluo-4 calcium, dose response (AID 434937); type: functional
[22] = target: T7, CAAX prenyl protease 2 (Saccharomyces cerevisiae S288c, UniProt Q03530); type: biochemical
T7 sequence (Q03530 whole entry): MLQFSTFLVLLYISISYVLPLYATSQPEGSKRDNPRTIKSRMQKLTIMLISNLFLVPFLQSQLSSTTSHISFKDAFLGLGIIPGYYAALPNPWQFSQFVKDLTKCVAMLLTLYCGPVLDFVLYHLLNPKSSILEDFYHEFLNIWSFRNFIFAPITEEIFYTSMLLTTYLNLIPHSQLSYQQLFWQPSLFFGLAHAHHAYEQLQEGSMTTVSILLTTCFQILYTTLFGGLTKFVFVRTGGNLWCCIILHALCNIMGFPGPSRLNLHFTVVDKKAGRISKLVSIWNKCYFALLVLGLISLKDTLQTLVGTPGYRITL

[23] = target: T8, SUMO-activating enzyme (Homo sapiens, UniProt Q9UBT2); assay: blockers of SAE1/SAE2–UBC9 SUMO transfer – biochemical, HTRF, uHTS, primary screen (AID 2006); type: protein-complex assay
T8 sequence (Q9UBE0 whole entry): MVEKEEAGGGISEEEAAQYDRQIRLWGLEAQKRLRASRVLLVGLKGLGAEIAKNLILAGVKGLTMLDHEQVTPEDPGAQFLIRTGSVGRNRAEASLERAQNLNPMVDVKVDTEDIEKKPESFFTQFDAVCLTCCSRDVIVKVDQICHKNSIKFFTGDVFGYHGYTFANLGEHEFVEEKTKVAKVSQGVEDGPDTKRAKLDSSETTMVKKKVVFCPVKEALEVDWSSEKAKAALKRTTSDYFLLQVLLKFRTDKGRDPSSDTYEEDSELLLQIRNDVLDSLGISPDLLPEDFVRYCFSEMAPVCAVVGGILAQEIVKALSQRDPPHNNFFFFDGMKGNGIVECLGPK
T8 sequence (Q9UBT2 whole entry): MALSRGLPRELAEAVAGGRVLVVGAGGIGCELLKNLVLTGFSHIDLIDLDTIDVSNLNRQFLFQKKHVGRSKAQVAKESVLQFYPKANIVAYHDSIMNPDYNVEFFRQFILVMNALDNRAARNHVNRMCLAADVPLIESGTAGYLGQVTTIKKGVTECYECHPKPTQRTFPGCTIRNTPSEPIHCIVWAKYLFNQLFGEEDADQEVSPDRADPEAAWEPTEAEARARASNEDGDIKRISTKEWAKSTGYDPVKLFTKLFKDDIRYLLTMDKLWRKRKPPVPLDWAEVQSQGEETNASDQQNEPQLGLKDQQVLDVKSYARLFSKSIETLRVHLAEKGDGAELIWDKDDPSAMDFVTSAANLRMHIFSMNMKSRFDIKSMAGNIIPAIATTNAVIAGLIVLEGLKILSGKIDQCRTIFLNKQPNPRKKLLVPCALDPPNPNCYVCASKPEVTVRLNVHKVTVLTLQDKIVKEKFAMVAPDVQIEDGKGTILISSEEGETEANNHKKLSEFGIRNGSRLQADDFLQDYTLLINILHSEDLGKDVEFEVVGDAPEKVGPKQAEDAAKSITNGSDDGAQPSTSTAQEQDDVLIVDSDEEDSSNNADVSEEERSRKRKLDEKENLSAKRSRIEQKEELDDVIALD

[24] = target: T8, SUMO-activating enzyme; assay: blockers of UBC9-mediated SUMO conjugation – biochemical, AlphaScreen, SUMOylation inhibitor project, confirmation (AID 2018); type: functional
[25] = target: Cytochrome P450 2C19 (Homo sapiens, UniProt P33261); assay: Cytochrome panel assay with activity outcomes. Panel member name: p450-cyp2c19 Compounds with AC50 equal or less than 10 uM are considered active; type: functional; settings: read-out: AC50
Chain of Cytochrome P450 2C19 (P33261 whole entry): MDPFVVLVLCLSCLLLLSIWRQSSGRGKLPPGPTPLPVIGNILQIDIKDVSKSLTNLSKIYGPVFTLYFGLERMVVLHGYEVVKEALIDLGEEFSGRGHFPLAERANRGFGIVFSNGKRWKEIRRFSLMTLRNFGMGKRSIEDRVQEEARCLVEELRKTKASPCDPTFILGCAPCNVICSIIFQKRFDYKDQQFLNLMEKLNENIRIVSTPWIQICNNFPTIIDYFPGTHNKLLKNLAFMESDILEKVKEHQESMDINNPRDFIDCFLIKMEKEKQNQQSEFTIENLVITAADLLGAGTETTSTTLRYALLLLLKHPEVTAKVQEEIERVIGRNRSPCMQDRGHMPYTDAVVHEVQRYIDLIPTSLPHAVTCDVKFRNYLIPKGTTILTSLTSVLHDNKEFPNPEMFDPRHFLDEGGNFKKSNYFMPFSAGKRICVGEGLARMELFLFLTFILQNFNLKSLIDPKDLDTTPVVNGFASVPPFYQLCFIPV

[26] = target: Glucose-6-phosphate 1-dehydrogenase (Homo sapiens, UniProt P11413); assay: inhibition of Homo sapiens G6PD, dose series – biochemical, fluorescence, selectivity assay for P. falciparum G6PD inhibitor project, dose response (AID 504792); type: functional
Chain of Glucose-6-phosphate 1-dehydrogenase (P11413 whole entry): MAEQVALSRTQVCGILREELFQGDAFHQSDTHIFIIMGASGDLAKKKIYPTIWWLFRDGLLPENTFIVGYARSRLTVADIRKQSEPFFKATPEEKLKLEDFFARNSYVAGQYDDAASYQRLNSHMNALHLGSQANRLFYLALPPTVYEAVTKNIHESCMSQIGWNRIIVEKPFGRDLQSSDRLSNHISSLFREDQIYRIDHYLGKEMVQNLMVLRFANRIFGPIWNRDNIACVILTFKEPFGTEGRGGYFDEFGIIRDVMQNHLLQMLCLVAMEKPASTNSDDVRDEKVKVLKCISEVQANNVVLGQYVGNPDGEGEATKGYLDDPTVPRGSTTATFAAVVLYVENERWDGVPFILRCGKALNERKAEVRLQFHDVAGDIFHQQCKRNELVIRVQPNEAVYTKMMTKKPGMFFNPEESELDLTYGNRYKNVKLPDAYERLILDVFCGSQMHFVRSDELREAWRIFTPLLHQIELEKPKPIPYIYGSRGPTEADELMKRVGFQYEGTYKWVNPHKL

CCC1=NN2C(=N)/C(=C\c3cccn3-c3ccc(C)cc3C)C(=O)N=C2S1
AC50 [1]: 8.16 µM (active)

O=C1c2ccccc2C(=O)N1c1nnc[nH]1
IC50 [2]: > 100 µM (inactive) | IC50 [3]: > 100 µM (not active)

O=C(CC12CC3CC(CC(C3)C1)C2)NC(=S)NCc1ccco1
EC50 [4]: 2.29 µM (active) | IC50 [5]: 0.969 µM (active) | EC50 [6]: > 60 µM (inconclusive)

Cc1cc(OCC(=O)Nc2ccc(S(=O)(=O)N3CCN(C)CC3)cc2)cc(C)c1Cl
EC50 [7]: > 32 µM (inactive) | IC50 [8]: 7.36 µM (active) | EC50 [9]: > 31.5 µM (inactive) | IC50 [10]: > 32 µM (inactive) | EC50 [11]: > 32 µM (inactive) | IC50 [12]: > 32 µM

Cn1c(CNc2ccc(Cl)cc2)nnc1SCc1ccccc1
AC50 [1]: 4.08 µM (active)

CN(C)c1ccc(/C=C/c2nc3ccccc3s2)cc1
AC50 [13]: 0.494 µM (active) | EC50 [14]: > 300 µM (not active) | EC50 [15]: 4.65 µM (active) | EC50 [16]: 1.43 µM (active) | CC50 [17]: 25.3 µM (active) | EC50 [18]: > 300 µM (not active) | AC50 [19]: 25.6 µM (active)

COc1ccc(C(CNC(=O)c2cccc3cccnc23)N(C)C)cc1 (stereo unspecified)
EC50 [20]: 0.531 µM (active) | EC50 [21]: 1.19 µM (active)

CC(C)(C)n1nnnc1C(c1cccs1)N(Cc1ccccc1)Cc1cccnc1 (stereo unspecified)
IC50 [5]: 7.73 µM (active)

CS(=O)(=O)c1ccc(C(=O)OCC(=O)N(CCc2ccccc2)Cc2ccccc2)cc1
AC50 [22]: 7.85 µM (active)

CC1CCN(CCOCCOc2ccccc2-c2ccccc2)CC1
EC50 [20]: 2.99 µM (active)

Fc1ccccc1CNCCC(Cc1ccccc1)c1ccc2c(c1)OCO2 (stereo unspecified)
EC50 [20]: 13.3 µM (active)

Cc1ccc(S(=O)(=O)N2CCN(c3nc(C)c4c(c3C#N)CC(C)(C)OC4)CC2)cc1
IC50 [5]: 10.9 µM (inactive)

CC(C)(C)C(=O)COC(=O)c1cc(-c2ccc(Br)cc2)n[nH]1
IC50 [2]: > 100 µM (inactive) | IC50 [3]: > 100 µM (not active)

CCCCN(CCCNC(=O)C1CCN(S(=O)(=O)N2CCOCC2)CC1)c1ccccc1
EC50 [7]: > 32 µM (inactive) | IC50 [8]: 25.3 µM (inactive) | EC50 [9]: > 31.5 µM (inactive) | IC50 [10]: > 32 µM (inactive) | EC50 [11]: > 32 µM (inactive) | IC50 [12]: 4.56 µM

Cc1ccc(NC(=O)COc2ccc(/C=C3/NC(=O)NC3=O)cc2)cc1
IC50 [23]: 17.1 µM (active) | IC50 [24]: 19.2 µM (active)

CC(C)c1nnc(NC(=O)c2sc3ccccc3c2Cl)s1
AC50 [25]: 22.4 µM (inconclusive) | IC50 [26]: 67.9 µM (inactive)

COCCNc1c2c(nc3ccccc13)CCC2
EC50 [20]: 5.96 µM (active)

CCN1CCN(c2ncnc3sc(C)c(-c4ccccc4)c23)CC1
EC50 [21]: 5.96 µM (active)
